Test results from patent US20260263521A1, “ANTI-CD200R1 ANTIBODY AND USE THEREOF” (AIMED BIO INC., priority 2023, published 2026).

Test system: Th1/Th2 cytokines in nasal polyp patient specimens
Test: Ex vivo cytokine inhibition in nasal polyp patient specimens (CBA)
Type: cell-based, human
Settings: antibody drugs 100 nM; three DUPIXENT-resistant samples of 10; Th2 cytokines IL-5, IL-4
Description: The specimens were finely chopped and minced, and then additionally processed twice using the m_lung_02 protocol on a gentleMACS (Miltenyi Biotec) to obtain tissue fragments. After centrifugation at 1500 rpm for 3 minutes to ensure that all tissues formed a pellet, RPMI media+10% FBS was aliquoted in the pellet at a 1:3 ratio. The pellet was thoroughly mixed with the medium and dispensed into a 96-well u-bottom plate, 100 μl per well, in triplicate for each drug. To establish the screening assay, results were obtained first using dexamethasone (a steroid-based positive control drug), followed by treatment with the anti-CD200R1 antibody (P001009v1) and other drugs used for the corresponding disease. All antibody-based drugs were treated at 100 nM, while steroid drugs such as dexamethasone were treated at 20 μM.
After drug treatment, the cells were incubated at 37° C. for 1 hour. To increase overall cytokine levels, 4 μl of a 10-fold diluted cell stimulation cocktail 500× (Invitrogen #00-4970-03) was added on each well and mixed. After reaction for 24 hours at 37° C., the supernatant was collected by centrifugation. Using the human Th1/Th2 cytokine cytometric bead array (CBA) kit (BD, #550749), cytokine levels in the supernatant were measured and the degree of drug responsiveness of each sample was determined.

## DUPIXENT®: drug used as a conventional therapeutic agent for atopic dermatitis and allergic diseases [reference compound]
  cytokine suppression in nasal polyp patient samples: no suppression
